Source: patent publication EP2471802A1, “Phosphoramidates of monosaccharides” (Bioiberica, S.A., priority 2010, dated 2012)

Key:
[1] = test system: bovine cartilage explants; assay: GAG release inhibition (IL-1 induced) in bovine cartilage explants, Blyscan colorimetric assay; format: cell-based; settings: for reduction in the GAG release induced by IL-1 (result in words): bovine explants, compared to culture stimulated with IL-1 in the presence of 0.25% DMSO
Procedure: (§1) Glycosaminoglycan (GAG) release is a test used to evaluate the effects of the compounds of the present invention on proteoglycan degradation induced by IL-1.
(§2) Full-depth articular cartilage were dissected from the metacarpophalangeal joints of calves of approximately 6 months of age or human cartilage from joint replacement surgery (approximately 4 mm diameter punches for bovine cartilage and 2 mm for human cartilage). After an equilibration period of 24 hours, explants were cultured for one day in 200 µl DMEM + hydrolyzed lactalbumin + 50 µg/ml vitamin C + penicillin/streptomycin + ITS (Insulin-Transferrin-Selenium) in the presence or absence of the compounds. After one day, GAG release was induced by addition of 10 ng of IL-1. Six days after IL-1 induction, the cartilage and culture medium were collected for analysis. During this six day period the culture medium was replaced every two days.
(§3) GAG release was analyzed using the Blyscan® colorimetric assay (Biocolor, Belfast, UK). To measure GAG content of the cartilage explants, the tissue was digested with papain. The culture medium of day 4, 6 and 8 was pooled before GAG analysis. GAG release was expressed as percentage of the total GAG content of the explants (i.e. GAG medium + GAG in papain digest).
(§4) A control condition with 0.25% DMSO was included because the test compounds were dissolved in DMSO. A condition with glucosamine hydrochloride was added for comparison.
(§5) Each culture condition was performed with cartilage of five different paws/patients to account for biological variation.
(§6) ANOVA followed by LSD post-hoc tests were used for determining differences between groups (p≤ 0.05 was considered significant).
(§7) Results in Tables 3 and 4 were expressed as a percentage reduction in GAG release compared to the control condition with DMSO stimulated with IL-1.

human cartilage explants = assay: GAG release inhibition (IL-1 induced) in human cartilage explants, Blyscan colorimetric assay; format: cell-based; settings: for reduction of GAG release (result in words): doses 50 µM, 100 µM and 250 µM
Procedure: as §1, §2, §3, §4, §5, §6, §7

[2] = Bos taurus, bovine cartilage explants, percentage reduction in GAG release vs 0.25% DMSO + IL-1 control, * p≤ 0.05, (Inactive) = not statistically significant

Compound	reduction in the GAG release induced by IL-1 (result in words) [1]	inhibition at 100 µM [1, 2]	also measured
2-deoxy-2-(pent-4-enoylamino)-3-O-[4-methoxyphenyl(ethoxy-L-prolinyl)]phosphoramidate-D-glucopyranose [Compound 87]	statistically significant reduction of the GAG release		GAG release inhibition ([1]; 250 µM, bovine cartilage explants, percentage reduction in GAG release vs 0.25% DMSO + IL-1 control, * p≤ 0.05, (Inactive) = not statistically significant): 33.3%*
COc1ccc(OP(=O)(O[C@H]2[C@H](O)[C@@H](CO)OC(O)[C@@H]2NC(C)=O)N2CCC[C@H]2C(=O)OCc2ccccc2)cc1 (stereo partly drawn) [Compound 1, 2-acetamido-2-deoxy-3-O-[4-methoxyphenyl(benzyloxy-L-prolinyl)]phosphoramidate-D-glucopyranose]	statistically significant reduction of the GAG release		reduction of GAG release (result in words) (human cartilage explants): statistically significant activity
COc1ccc(OP(=O)(N[C@H](C(=O)OCc2ccccc2)C(C)C)O[C@H]2[C@H](O)[C@@H](CO)OC(O)[C@@H]2NC(C)=O)cc1 (stereo partly drawn) [Compound 16, 2-acetamido-2-deoxy-3-O-[4-methoxyphenyl(benzyloxy-L-valinyl)]phosphoramidate-D-glucopyranose]	statistically significant reduction of the GAG release	27%	
CCOC(=O)[C@@H]1CCCN1P(=O)(Oc1ccc(OC)cc1)O[C@H]1[C@H](O)[C@@H](CO)OC(O)[C@@H]1NC(C)=O (some centres unmarked) [Compound 31]	statistically significant reduction of the GAG release		
CCOC(=O)[C@@H]1CCCN1P(=O)(Oc1ccc(OC)cc1)O[C@H]1[C@H](O)[C@@H](NC(C)=O)C(O)O[C@@H]1CO (stereo partly drawn) [Compound 32, 2-acetamido-2-deoxy-4-O-[4-methoxyphenyl(ethoxy-L-prolinyl)]phosphoramidate-D-glucopyranose]	statistically significant reduction of the GAG release		
CCC(C)OC(=O)[C@@H](NP(=O)(Oc1ccc(OC)cc1)O[C@H]1[C@H](O)[C@@H](CO)OC(O)[C@@H]1NC(C)=O)C(C)C (stereo partly drawn) [Compound 58, 2-acetamido-2-deoxy-3-O-[4-methoxyphenyl(2-butoxy-L-valinyl)]phosphoramidate-D-glucopyranose]	statistically significant reduction of the GAG release	41%	
C=CCCC(=O)N[C@H]1C(O)O[C@H](CO)[C@@H](O)[C@@H]1OP(=O)(N[C@H](C(=O)OCc1ccccc1)C(C)C)Oc1ccc(OC)cc1 (stereo partly drawn) [Compound 61, 2-deoxy-2-(pent-4-enoylamino)-3-O-[4-methoxyphenyl(benzyloxy-L-valinyl)]phosphoramidate-D-glucopyranose]	statistically significant reduction of the GAG release	47%	
COc1ccc(OP(=O)(N[C@H](C(=O)OCc2ccccc2)C(C)C)O[C@H]2[C@H](O)[C@@H](CO)OC(O)[C@@H]2N)cc1 (stereo partly drawn) [Compound 63, 2-amino-2-deoxy-3-O-[4-methoxyphenyl(benzyloxy-L-valinyl)]phosphoramidate-D-glucopyranose]	statistically significant reduction of the GAG release	31%	
CCCCCOC(=O)[C@@H]1CCCN1P(=O)(Oc1ccc(OC)cc1)O[C@H]1[C@H](O)[C@@H](NC(C)=O)C(O)O[C@@H]1CO (stereo partly drawn) [Compound 69, 2-acetamido-2-deoxy-4-0-[4-methoxyphenyl(n-pentoxy-L-prolinyl)]phosphoramidate-D-glucopyranose]	statistically significant reduction of the GAG release		
CC(=O)N[C@H]1C(O)O[C@H](CO)[C@@H](O)[C@@H]1OP(=O)(Oc1ccccc1)N1CCC[C@H]1C(=O)OCc1ccccc1 (stereo partly drawn) [Compound 74, 2-acetamido-2-deoxy-3-O-[phenyl(benzyloxy-L-prolinyl)]phosphoramidate-D-glucopyranose]	statistically significant reduction of the GAG release		
CCOC(=O)[C@@H]1CCCN1P(=O)(Oc1cccc2ccccc12)O[C@H]1[C@H](O)[C@@H](CO)OC(O)[C@@H]1NC(C)=O (stereo partly drawn) [Compound 80, 2-acetamido-2-deoxy-3-O-[1-naphtyl(ethoxy-L-prolinyl)]phosphoramidate-D-glucopyranose]	statistically significant reduction of the GAG release		
Cl.N[C@H]1C(O)O[C@H](CO)[C@@H](O)[C@@H]1O (some centres unmarked) [Glucosamine Hydrochloride]	did not caused any statistically significant reduction	0%	inhibition at 250 µM ([1]; Bos taurus, 250 µM, bovine cartilage explants, percentage reduction in GAG release vs 0.25% DMSO + IL-1 control, * p≤ 0.05, (Inactive) = not statistically significant): 0%; inhibition at 50 µM (human cartilage explants; 50 µM, percentage reduction in GAG release vs 0.25% DMSO + IL-1 control, * p≤ 0.05, (Inactive) = not statistically significant): 7.8%; inhibition at 100 µM (human cartilage explants; 100 µM, percentage reduction in GAG release vs 0.25% DMSO + IL-1 control, * p≤ 0.05, (Inactive) = not statistically significant): 11.9%; inhibition at 250 µM (human cartilage explants; 250 µM, percentage reduction in GAG release vs 0.25% DMSO + IL-1 control, * p≤ 0.05, (Inactive) = not statistically significant): 11.9%; reduction of GAG release (result in words) (human cartilage explants): inactive
COc1ccc(OP(=O)(NC(C(=O)OCc2ccccc2)C(C)C)OC[C@H]2OC(O)[C@H](NC(C)=O)[C@@H](O)[C@@H]2O)cc1 (some centres unmarked) [Reference compound 4, reference compound]		3%	
COc1ccc(OP(=O)(NC(C(=O)OCc2ccccc2)C(C)C)OC[C@H]2OC(O)[C@H](N)[C@@H](O)[C@@H]2O)cc1 (some centres unmarked) [Reference compound 5, reference compound]		4%	
